Data published in article PMC10449633 (Nature Chemical Biology, 2023).
Several values for one entry are separate records, joined by “and”; a condition that tells them apart may be missing. Equal values may be shown once. Read-outs that look alike come from different tables or passages of the source. Numbered stars: 1 amine (or outer) side, 2 acyl side, 3 side chain; on linkers, the order of the positions; unused ones are H or OH. Square brackets hold non-standard residues; d marks the D form. Peptide text beside a SMILES is read from it. ξ: configuration not given here. X1 = CN(C(Cc1cn(Cc2ccc(Br)cc2)c2ccccc12)C(=O)[*:2])[*:1]; ξAla(CF3) = NC(CC(F)(F)F)C(=O)O; X2 = N#CCCC(O[*:1])C(=O)[*:2]; NMeL = CN[CH](CC(C)C)C(=O)O; NMeA = CN[CH](C)C(=O)O

Columns and labels:
Sec61 = target: T1, Sec61 (Homo sapiens, UniProt P61619); experiment: signal peptide-GLuc (SP-GLuc) reporter panel, 89 constructs; format: cell-based; conditions: read-out: log10(IC50 8445) (converted)
T1 construct: endogenous in cells
T1 sequence (P61619 whole entry): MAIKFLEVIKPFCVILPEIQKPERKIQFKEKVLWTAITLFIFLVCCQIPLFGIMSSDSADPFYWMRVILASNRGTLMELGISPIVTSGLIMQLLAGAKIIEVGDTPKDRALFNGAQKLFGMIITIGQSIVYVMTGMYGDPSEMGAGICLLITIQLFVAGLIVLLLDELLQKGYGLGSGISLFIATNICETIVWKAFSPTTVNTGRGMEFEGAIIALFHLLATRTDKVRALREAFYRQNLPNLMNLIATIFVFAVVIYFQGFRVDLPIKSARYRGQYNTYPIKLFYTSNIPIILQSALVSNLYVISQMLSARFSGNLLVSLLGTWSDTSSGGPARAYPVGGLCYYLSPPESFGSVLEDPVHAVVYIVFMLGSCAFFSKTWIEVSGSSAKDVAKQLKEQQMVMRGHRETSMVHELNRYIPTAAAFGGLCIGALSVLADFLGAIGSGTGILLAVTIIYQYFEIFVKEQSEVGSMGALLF
T1 sequence (P60059 whole entry, further chain): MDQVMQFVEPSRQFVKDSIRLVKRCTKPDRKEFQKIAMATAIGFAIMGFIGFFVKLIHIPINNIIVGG
T1 sequence (P60468 whole entry, further chain): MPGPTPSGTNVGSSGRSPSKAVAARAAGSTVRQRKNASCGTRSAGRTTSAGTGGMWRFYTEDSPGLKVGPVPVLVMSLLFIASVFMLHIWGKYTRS
Text: The heat map depicts IC50 values calculated from each SP-GLuc dose–response curve. d, Arthritis was induced in BALB/c mice with antibodies specific for type II collagen (mAb) on day 0 and endotoxin on day 3. On day 4, when the disease was present in all animals, mice were randomized and treated for 2 weeks with thrice weekly (QODx3) or weekly (QW) intravenous administration of vehicle or KZR-8445 or intraperitoneal administration of dexamethasone. Clinical scores (0–4 per paw; n = 10 per group) and body weights were followed until day 14. Data are presented as mean values ± s.d. mAb, monoclonal antibody. Source data
To investigate the effects of KZR-8445 on secretory and membrane protein biogenesis and to establish Sec61α as the relevant target, we quantified the secretion of a doxycycline-inducible Gaussia luciferase (GLuc) reporter fused to the C-terminus of two full-length pro-inflammatory cytokines, interleukin-2 (IL-2) (which contains a cleavable signal peptide) and tumor necrosis factor-alpha (TNFα) (which contains an N-terminal transmembrane anchor). […] KZR-8445 is structurally related to CT8, which discriminates among Sec61 clients based largely on their N-terminal signal peptide. […] We also directly compared KZR-8445 to mycolactone A/B, a structurally distinct and relatively client-nonselective Sec61 inhibitor[8],[25], for their ability to discriminate between vascular cell adhesion molecule (VCAM) and preprolactin (pPL) signal peptides.

[1] = tested on: Sec61 R66I TNFa(FL) reporter cells; experiment: CTG (CellTiter-Glo) viability of TNFa(FL) reporter cells expressing Sec61 R66I; format: cell-based; conditions: replicate columns
Text: Supplement 41589_2023_1326_MOESM7_ESM.xlsx, sheet "Panel B" | column: Sec61 R66I - CTG (TNFa(FL))

CC(C)CC1NC(=O)C(Cc2cn(Cc3ccc(Br)cc3)c3ccccc23)N(C)C(=O)C(CC(F)(F)F)NC(=O)C(CC(C)C)N(C)C(=O)C(CC(F)(F)F)NC(=O)C(CCC#N)OC(=O)C(C)N(C)C1=O (stereo not shown) [KZR-8445] (cyclo([X1]L[NMeA][X2][ξAla(CF3)][NMeL][ξAla(CF3)]); configuration not given here)
IC50 (Sec61; IL6 SP-GLuc): 155 nM
IC50 (Sec61; IL6ST SP-GLuc): 56.5 nM
IC50 (Sec61; IL7 SP-GLuc): 5.23 nM
IC50 (Sec61; IL10 SP-GLuc): 434 nM
IC50 (Sec61; IL11 SP-GLuc): 183 nM
IC50 (Sec61; IL12B SP-GLuc): 109 nM
IC50 (Sec61; IL12RB1 SP-GLuc): 64.4 nM
IC50 (Sec61; IL13 SP-GLuc): 59.1 nM
IC50 (Sec61; IL15RA SP-GLuc): 294 nM
IC50 (Sec61; IL15 SP-GLuc): 116 nM
IC50 (Sec61; IL17A SP-GLuc): 318 nM
IC50 (Sec61; IL17F SP-GLuc): 228 nM
IC50 (Sec61; IL17RA SP-GLuc): 408 nM
IC50 (Sec61; IL23A SP-GLuc): 425 nM
IC50 (Sec61; IL23R SP-GLuc): 366 nM
IC50 (Sec61; ITGA3 SP-GLuc): 18300 nM
IC50 (Sec61; ITGB1 SP-GLuc): > 25000 nM
IC50 (Sec61; ITGB3 SP-GLuc): 106 nM
IC50 (Sec61; ITGB5 SP-GLuc): 89.1 nM
IC50 (Sec61; ITGB7 SP-GLuc): 228 nM
IC50 (Sec61; JTB SP-GLuc): 25.5 nM
IC50 (Sec61; KRTDAP SP-GLuc): 570 nM
IC50 (Sec61; LCN6 SP-GLuc): 101 nM
IC50 (Sec61; LDLR SP-GLuc): 800 nM
IC50 (Sec61; LILRB2 SP-GLuc): 1730 nM
IC50 (Sec61; LRP8 SP-GLuc): 681 nM
IC50 (Sec61; LRRC32 SP-GLuc): > 25000 nM
IC50 (Sec61; MASP2 SP-GLuc): 127 nM
IC50 (Sec61; METTL7a SP-GLuc): 6900 nM
IC50 (Sec61; NGF SP-GLuc): 347 nM
IC50 (Sec61; P3H1 SP-GLuc): 72.7 nM
IC50 (Sec61; PCDHA4 SP-GLuc): 489 nM
IC50 (Sec61; PCSK9 SP-GLuc): 1280 nM
IC50 (Sec61; PDCD1 SP-GLuc): 37 nM
IC50 (Sec61; PRKCSH SP-GLuc): 186 nM
IC50 (Sec61; PSG8 SP-GLuc): 292 nM
IC50 (Sec61; SIRPA SP-GLuc): 2030 nM
IC50 (Sec61; SSR2 SP-GLuc): 137 nM
IC50 (Sec61; STAB1 SP-GLuc): 670 nM
IC50 (Sec61; SUCO SP-GLuc): 1450 nM
IC50 (Sec61; TGFB1 SP-GLuc): 2210 nM
IC50 (Sec61; TGFB2 SP-GLuc): 187 nM
IC50 (Sec61; TGFB3 SP-GLuc): > 25000 nM
IC50 (Sec61; TGFBR1 SP-GLuc): 134 nM
IC50 (Sec61; TIGIT SP-GLuc): 590 nM
IC50 (Sec61; TMED10 SP-GLuc): 462 nM
IC50 (Sec61; UCN SP-GLuc): 5900 nM
Sec61 R66I - CTG (TNFa(FL)) ([1]; 0.32 nM): 108 and 113 and 120
Sec61 R66I - CTG (TNFa(FL)) ([1]; 1.6 nM): 101 and 108 and 112
Sec61 R66I - CTG (TNFa(FL)) ([1]; 8 nM): 103 and 106 and 110
Sec61 R66I - CTG (TNFa(FL)) ([1]; 40 nM): 99 and 111 and 119
Sec61 R66I - CTG (TNFa(FL)) ([1]; 200 nM): 106 and 110 and 120
Sec61 R66I - CTG (TNFa(FL)) ([1]; 1000 nM): 112 (2×) and 113
Sec61 R66I - CTG (TNFa(FL)) ([1]; 5000 nM): 102 and 107 and 104
Sec61 R66I - CTG (TNFa(FL)) ([1]; 25000 nM): 101 and 94 and 102
